From patent US12351574B2, “Selective ligands for modulation of GIRK channels” (Northeastern University, priority 2018, dated 2025)

How the values were obtained:
[1] = novel object recognition (NOR) test; format: in vivo, rat; details: 10 and 30 mg/kg
Experimental: Novel object recognition test (NORT): Novel object recognition test was performed in an open-field box measuring 100×100×20 cm as previously described. Prior to testing, the rats were allowed to explore the box for 5 min per day for 3 consecutive days with no objects present. Testing consisted of two 2 min trials. During a familiarization trial, two identical objects (plastic cylinders 6 cm in diameter and 12 cm tall in white and red) were placed in two adjacent corners. The animal was then released against the center of the opposite wall with its back to the objects. This was done to prevent coercion to explore the objects. The animals were regarded to be exploring when they were facing, sniffing, or biting the object with nose and/or forepaws. Immediately after familiarization, the rats received intraperitoneal (i.p.) injections of vehicle or ligands and were returned to its home cage. After a waiting period of 3 h (|T|=3 h), the rat was placed in the box again and test trial was performed. […] The times spent in exploring each object during both trials were recorded manually by using a stopwatch. […] Discrimination index (DI) was used to measure object recognition and is calculated as the difference in time exploring the novel (TN) versus familiar object (TF), then dividing this value by the total time spent exploring the two objects in the test trial. […]

[2] = molecular target: T1, GIRK1/2(IV-VT) (UniProt P48542+P48549, I97V/V99T); assay: TEVC in Xenopus oocytes, double mutant GIRK1/2(IV-VT); format: cell-based, human GIRK1, mouse GIRK2; details: GIRK1/2(IV-VT) double mutant
T1 construct: expressed in transfected cells; host or cells: Xenopus laevis oocytes (cRNA injection)
T1 sequence (P48549 1-501): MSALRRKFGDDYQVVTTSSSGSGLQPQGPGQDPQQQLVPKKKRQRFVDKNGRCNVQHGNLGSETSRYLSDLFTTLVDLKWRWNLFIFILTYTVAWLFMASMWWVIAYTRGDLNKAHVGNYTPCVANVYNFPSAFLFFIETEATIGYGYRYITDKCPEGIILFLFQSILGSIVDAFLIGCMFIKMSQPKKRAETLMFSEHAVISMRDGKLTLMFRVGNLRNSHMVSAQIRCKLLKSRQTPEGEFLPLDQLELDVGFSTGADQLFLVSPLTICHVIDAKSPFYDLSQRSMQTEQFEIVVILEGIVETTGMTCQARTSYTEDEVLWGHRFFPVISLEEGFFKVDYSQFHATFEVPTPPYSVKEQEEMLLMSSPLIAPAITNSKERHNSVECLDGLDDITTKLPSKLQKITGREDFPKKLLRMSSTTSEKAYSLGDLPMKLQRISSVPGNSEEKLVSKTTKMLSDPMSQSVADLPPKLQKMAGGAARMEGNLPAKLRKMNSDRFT
T1 sequence (P48542 1-425 I97V/V99T): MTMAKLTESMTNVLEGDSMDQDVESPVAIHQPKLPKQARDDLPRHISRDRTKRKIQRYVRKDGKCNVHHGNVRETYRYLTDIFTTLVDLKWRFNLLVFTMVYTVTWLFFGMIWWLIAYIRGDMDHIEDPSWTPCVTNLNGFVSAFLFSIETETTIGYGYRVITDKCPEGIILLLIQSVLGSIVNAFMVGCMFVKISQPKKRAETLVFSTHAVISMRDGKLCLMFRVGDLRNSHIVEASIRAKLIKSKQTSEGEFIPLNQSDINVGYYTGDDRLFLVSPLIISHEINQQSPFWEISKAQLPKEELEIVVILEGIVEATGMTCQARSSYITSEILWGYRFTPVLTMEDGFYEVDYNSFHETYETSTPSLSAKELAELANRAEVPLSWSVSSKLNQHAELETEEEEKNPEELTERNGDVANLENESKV
Description: Molecular biology: For Xenopus oocyte expression, human GIRK1 and human GIRK4 cDNAs were subcloned into pGEMHE. For mammalian expression, human GIRK1 and human GIRK4 cDNAs were subcloned into pcDNA3 and pcDNA3.1/V5-His B, respectively (Invitrogen). Mouse GIRK2 cDNA was subcloned in the dual-function vector, pXoom. Point mutations were introduced using a standard Pfu-based mutagenesis technique according to the QuikChange protocol (Agilent). Mutations were verified by sequencing.
Electrophysiology of oocytes: Whole-oocyte currents were measured by conventional two-electrode voltage clamp (TEVC) with a GeneClamp 500 amplifier (Axon Instruments). Agarose cushion microelectrodes were filled with 1.5% (w/v) agarose in 3 M KCl and were used with resistances between 0.1 and 1.5 megaohms. […] Barium-sensitive basal currents from both groups, 1) Vehicle, 2) single concentration at 10 μM and 3) multiple concentrations of ML297 or GAT compounds in the presence of HK solution, were assessed at −80 mV using TEVC. Barium-sensitive currents were normalized to average basal current in the vehicle solutions. The HK solution contained the following: 96 mM KCl, 1 mM NaCl, 1 mM MgCl2, 5 mM KOH/HEPES, pH 7.4. The barium solution consisted of HK+10 mM BaCl2. Five to ten oocytes from the same batch (same frog) were recorded for each group, and the experiments were repeated in at least four batches. Data acquisition and analysis were carried out using pClamp9 (Molecular Devices) and OriginPro (Microcal) software.
To test these computational predictions, the inventors mutated each or both of the two M1 key wild-type GIRK4 subunit residues to the corresponding GIRK2 residues (GIRK4-V92I, GIRK4-T94V, GIRK4-V92I/T94V or GIRK4-dm) and vice-versa the GIRK2 residues to the corresponding GIRK4 ones (GIRK2-I97V, GIRK2-V99T, GIRK2-I97V/V99T or GIRK2-dm) (FIG. 35). […]

discrimination index (in words) [1]: similar
EC50 [2]: 940 ± 150 nM
EMAX [2]: 1.68±0.04
Emax ([2]; read-out: EMAX, % of the control GIRK1/2): 72%
Compound: Cc1cc(NC(=O)Nc2ccc(Br)s2)n(-c2ccccc2)n1 [GAT1508, 1-(5-bromothiophen-2-yl)-3-(3-methyl-1-phenyl-1H-pyrazol-5-yl)urea]
